Entries after “also recorded” stand apart in the source; their conditions may differ.
How the values were obtained:
[1] = system: heme-oxygenase (brain homogenates); experiment: heme-oxygenase activity in rat brain homogenates; format: biochemical; conditions: for effect on brain HO activity: 0.1-10 mM (sodium nitroprusside 0.001-10 mM)
Description: (§1) The brains and spleens of male Wistar rats (160±20 g, Tuck Co. UK) were homogenized using a glass homogenizer, in protease inhibitory buffer; phenylmethylsulfonyl fluoride 1 mM, pepstatin A 1.5 mM and leupeptin 0.2 mM, in 10 mM phosphate buffered saline pH 7.3. Protein determinations were carried by the Bradford method, bovine serum albumin was used as protein standard.
(§2) Heme-oxygenase activity was assayed as previously described (Sierra, E. E. et al., (1992) Analytical Biochem. 200, 27-30).
(§3) Briefly, the 15 μl reaction mixture consisted of 11.2 μM [^14 C] heme (specific activity 54 Ci/mol), 1 mM NADPH, 2 mM glucose-6-phosphate, 0.1 units of glucose-6-phosphate dehydrogenase, 3 mg/ml liver cytosolic protein, 100-50 μg of sample protein and the relevant concentration of test drugs; L-arginine, D-arginine, NG-nitro-L-arginine methyl ester (L-NAME) or sodium nitroprusside. The reaction mixture containing the test drugs was allowed to equilibrate at 37° C. for 15 mins before the reaction was started by the addition of the heme. The reaction was terminated after 30 mins by the addition of excess cold heme and bilirubin and placed on ice. The reaction mixture was spotted on to the silica gel thin-layer chromatography sheet by 2, 2 μl applications. All samples were run in duplicate. The chromatogram was developed using a 20:1 dilution of chloroform:acetic acid. Spots corresponding to heme and bilirubin were excised and placed in 10 ml of scintillation fluid to be counted. The data was calculated as pmols bilirubin formed/mg protein/hour.
(§4) Statistical analysis of the raw data was carried using Student's unpaired t test. Results expressed as mean ± s.e.mean with P<0.05 considered as significant.

[2] = system: heme-oxygenase (spleen homogenates); experiment: heme-oxygenase activity in rat spleen homogenates; format: biochemical; conditions: 0.1-10 mM (sodium nitroprusside 0.001-10 mM)
Description: as §1, §2, §3, §4

carrageenin pleurisy [3] = experiment: rat carrageenin pleurisy model of acute inflammation (Example 1); format: in vivo; conditions: for Exudate Volume / Total Cells 10^6: mean ± s.e. mean; for effect on inflammation (exudate volumes and cell numbers) at 6 hours: compared to controls; for increase of exudate volume (cell exudate) compared to vehicle control: SnPP 2 x 40 μmoles/kg s.c.
Description: Male Wistar rates 200±20 grams (Tuck & Sons Ltd., Essex, UK) were used for inflammation. Animals were administered either with 15 mg/kg Ferriprotoporphrin IX chloride (FePP) by intravenous injection--18 hours before inflammation or with 2 doses of 40 μmoles/kg Tin protoporphyrin dichloride (SnPP) by sub-cutaneous injection--18 hours and at the time of inflammation induction (porphyrins were obtained from Porphyrin Products Inc., Logan, Utah). Drugs were prepared in 0.1N NaOH and mixed 1:1 with saline, these were then adjusted to pH 7.4, drug vehicle. The total volume injected was 0.2 ml. Control animals received vehicle only.
Carrageenin pleurisy was induced in rats and cell pellet prepared as previously described by Tomlinson et al.
Results are expressed as the mean ± s.e. mean. Statistical analysis was determined by Mann-Whitney U-test, with a P value of <0.05 considered significant.
The effect of heme-oxygenase inhibitor Tin protoporphyrin dichloride (SnPP) and inducer ferriprotoporphyrin IX chloride (FePP) on acute inflammation was examined. Treatment animals received either 2 doses of 40 μmoles/kg SnPP s.c.--18 and 0 hours before induction of inflammation, or 1 doses of 15 mg/kg FePP i.v--18 before inflammation. Treatment animals were compared to control animals which had received vehicle only by the appropriate route.***P<0.001.

carrageenin pleurisy [4] = experiment: rat carrageenin pleurisy, dose response of HO modulators (Example 2); format: in vivo; conditions: for effect on the inflammatory lesion compared to vehicle control at 6 hours: 6 hours after carrageenin, PMNs phase (data not shown); for effect on inflammation at 24 hours (dose dependence): 3, 10 or 30 μmoles/kg
Description: Animals received 2 doses of either 3, 10 or 30 μmoles/kg SnPP (a HO inhibitor) or vehicle control--18 hours and at the time of inflammation induction. Animals received 1 dose of either 3, 10 or 30 μmoles/kg FePP (a HO inducer) or vehicle control--18 hours before induction of inflammation, n=9.
Male Wistar rats 200+20 grams were anaesthetized with halothane and 150 ul of a 1% carrageenin solution in 0.9% NaCl injected into the pleural cavity. Exudates were collected 2, 6, 12, 24 and 48 hours after injection of the irritant by pleural lavage with 1 ml protease inhibitory buffer containing: trisodium citrate 3.15%, phenylmethylsulfonyl fluoride 1 mM (Sigma Chemical Co., Poole, UK), pepstatin A 1.5 mM (Sigma) and leupeptin 0.2 mM (Sigma) in 10 mM phosphate buffered (PBS) pH 7.3. Any exudates with blood contamination were rejected. Cells were counted using a Coulter counter, model DN (Coulter Electronics Ltd., Luton, UK). Each sample was centrifuged at 800 g for 10 minutes and the resultant cell pellet prepared as outlined below.
Results are expressed as the mean ± s.e.mean for (n) experiments. Statistical analysis was determined Student's unpaired t test, with a P value of <0.05 considered significant.
To investigate whether increased HO activity was not only associated with tissue protection but also involved in resolving acute inflammation we used an HO inhibitor, tin protoporphyrin (SnPP), administered sub-cutaneously 18 hours before and at the time of carrageenin injection, and an HO inducer, ferriprotoporphyrin IX chloride (FePP), given […] 18 hours before induction of the inflammation (Maines MD et al., FASEB J. 1988; 2:2557-2568).

heme-oxygenase = experiment: HO activity of 24 hour inflammatory cells after porphyrin treatment; format: in vivo, rat; conditions: FIGS. 15 and 16
Description: Cells are lysed by sonication for 10 seconds in protease inhibitory buffer. Heme-oxygenase is assayed as previously described. […] The reaction is started by the addition of the heme, incubated at 37° C. for 30 minutes and stopped by the addition of excess cold heme and bilirubin followed by placing on ice. 2 μl of reaction mixture is spotted twice onto a silica gel thin-layer chromatography sheet. The chromatogram is developed using a 20:1 dilution of chloroform:acetic acid. Spots corresponding to hem and bilirubin are were cut out and placed in 10 ml of scintillation fluid to be counted. […] The activity is expressed as pmoles bilirubin/mg protein/hour, n=9. Results are expressed as the mean ± s.e.mean.

[5] = 6 hours after carrageenin, SnPP 2 x 40 μmoles/kg s.c. (-18 and 0 h) or FePP 15 mg/kg i.v. (-18 h)
[6] = 6 hours after carrageenin, SnPP 2 x 40 μmoles/kg s.c. or FePP 15 mg/kg i.v.
[7] = 24 hours after carrageenin, SnPP 2 x 40 μmoles/kg s.c. or FePP 15 mg/kg i.v.
[8] = 24 hours, FePP 15 mg/kg i.v., P<0.001
[9] = 24 hours, FePP 3 μmole/kg, 1 dose s.c. 18 hours before

Row | SMILES | effect on brain HO activity [1] | effect on spleen HO activity [2] | Exudate Volume (carrageenin pleurisy [3]; [5]) | Total Cells 10^6 (carrageenin pleurisy [3]; [6]) | effect on inflammation (exudate volumes and cell numbers) at 6 hours (carrageenin pleurisy [3]) | Exudate Volume (carrageenin pleurisy [3]; [7]) | Total Cells 10^6 (carrageenin pleurisy [3]; [7]) | effect on the inflammatory lesion compared to vehicle control at 6 hours (carrageenin pleurisy [4]) | effect on inflammation at 24 hours (dose dependence) (carrageenin pleurisy [4]; 24 hours) | HO activity of inflammatory pellets after treatment (heme-oxygenase) | also measured
1 | N=C(N)NCCC[C@@H](N)C(=O)O [D-arginine] | no significant effect | not modified; also recorded: no effect | – | – | – | – | – | – | – | – | –
2 | C=CC1=C(C)c2cc3[n-]c(cc4[n-]c(cc5nc(cc1n2)C(C)=C5C=C)c(C)c4CCC(=O)O)c(CCC(=O)O)c3C.[Cl-].[Fe+3] [FePP, Ferriprotoporphrin IX chloride] | – | – | 0.99 ± 0.11 mL | 50 ± 8 10^6 | not significantly modified | 0.37 ± 0.07 mL | 45 ± 6 10^6 | Neither SnPP or FePP treatments had an effect | dose dependant suppression of inflammatory cell number and exudate volume | increase | effect on inflammation (exudate volumes and cell numbers) at 6 hours (carrageenin pleurisy [3]; listed as hemin): no significant effect; decrease of cell number (total cells) compared to vehicle control (carrageenin pleurisy [3]; [8]): 50%; decrease of exudate volume (cell exudate) compared to vehicle control (carrageenin pleurisy [3]; [8]): 73%; decrease of exudate volume (cell exudate) compared to vehicle control (carrageenin pleurisy [3]; 24 hours, FePP 15 mg/kg i.v., P<0.001, listed as hemin): 83%; degree of suppression compared with conventional anti-inflammatories or steroids in this model (carrageenin pleurisy [4]; 24 hours): greater than that seen with optimal doses of conventional anti-inflammatories or steroids; reduction of exudate volume compared to vehicle control (carrageenin pleurisy [4]; [9]): 55%; reduction of inflammatory cell number compared to vehicle control (carrageenin pleurisy [4]; [9]): 90%
3 | COC(=O)[C@@H](N)CCCNC(=N)N[N+](=O)[O-] [L-NAME, NG-nitro-L-arginine methyl ester] | dose dependent increase; also recorded: increased activity | not modified; also recorded: no effect | – | – | – | – | – | – | – | – | increase in brain HO activity ([1]; 5 mM L-NAME, vs control without compound): 80%
4 | N=C(N)NCCC[C@H](N)C(=O)O [L-arginine] | dose dependent decrease; also recorded: decreased heme-oxygenase activity | not modified; also recorded: no effect | – | – | – | – | – | – | – | – | decrease in brain HO activity ([1]; 10 mM, vs control without compound, 30 min): 75%
5 | C=CC1=C(C)C2=Cc3c(C=C)c(C)c4[n]3[Sn]([Cl])([Cl])[n]3c(c(C)c(CCC(=O)O)c3=CC3=NC(=C4)C(C)=C3CCC(=O)O)=CC1=N2 [SnPP, Tin protoporphyrin dichloride] | – | – | 1.59 ± 0.12 mL | 67 ± 6 10^6 | not significantly modified | 1.80 ± 0.21 mL | 58 ± 6 10^6 | Neither SnPP or FePP treatments had an effect | dose dependant increase in inflammatory exudate | reduction of HO activity | effect on inflammation (exudate volumes and cell numbers) at 6 hours (carrageenin pleurisy [3]; listed as tin Protoporphyrin-IX): no significant effect; increase of exudate volume (cell exudate) compared to vehicle control (carrageenin pleurisy [3]; 24 hours, P<0.001): 128%; increase of exudate volume (cell exudate) compared to vehicle control (carrageenin pleurisy [3]; 24 hours, P<0.001, listed as tin Protoporphyrin-IX): 135%; increase of exudate volume compared to vehicle control (carrageenin pleurisy [4]; 24 hours, 3 μmoles/kg SnPP, 2 doses s.c.): 70%; effect on exudate volume at highest dose (carrageenin pleurisy [4]; 24 hours, SnPP 30 μmoles/kg): increased exudate volume further; effect on inflammatory cell number at highest dose (carrageenin pleurisy [4]; 24 hours, SnPP 30 μmoles/kg, likely a toxic effect): decrease in inflammatory cell number

From patent publication US6066333A, “Pharmaceutical control of inflammation” (William Harvey Research Limited, priority 1994, dated 2000)
